{"source": "patent US20190054098A1", "about": "“AGENTS AND METHODS USING THEREOF FOR THE PREVENTION AND TREATMENT OF STEM CELLS SENESCENCE” (ECOLE POLYTECHNIQUE FEDERALE DE LAUSANNE (EPFL), priority 2015, published 2019)", "tested_on": "C2C12 myoblasts", "assay": "Expression of UPRmt markers, prohibitins and cell cycle regulators in C2C12 myoblasts treated with TAP (FIG. 3)", "format": "cell-based", "conditions": "50 μg/ml TAP, different treatment periods (FIG. 3)", "protocol": "Total RNA was extracted from MuSCs by sorting cells directly into TriPure RNA isolation reagent (Roche) or from cultured C2C12 myoblasts using TriPure reagent according to the product manual. Total RNA was transcribed to cDNA using QuantiTect Reverse Transcription Kit (Qiagen). Expression of selected genes was analyzed using the LightCycler480 system (Roche) and LightCycler® 480 SYBR Green I Master reagent (Roche). The acidic ribosomal protein 36b4 gene (ribosomal protein, large, P0, Rplp0) was used as housekeeping reference. C2C12 cells were lysed in a buffer composed of 50 mM Tris, 150 mM KCl, EDTA 1 mM, NP40 1%, nicotinamide 5 mM, sodium butyrate 1 mM and protease inhibitors cocktail (Roche) at pH 7.4. Proteins were separated by SDS-PAGE and transferred onto nitrocellulose membranes. Blocking and antibody incubations were performed in 3% BSA. The following primary antibodies were used: anti-cleavage caspase 3 (Cell Signalling); Anti-γH2AX (Millipore); anti-β-actin (Sigma). All secondary antibodies were from Jackson Immunoresearch. Antibody detection reactions were developed by enhanced chemiluminescence (Advansta, CA, USA) using x-ray films or imaged using the c300 imaging system (Azure Biosystems). The following primary antibodies were used: anti-HSP60 (Enzo Life Science); anti-PHB (Biolegend); anti-PHB2 (Santa Cruz); anti-CKD4 (Novus biologicals); anti-CCND1 (Santa Cruz); anti-CCND3 (Santa Cruz); anti-HSP90 (BD Biosciences); HSP70 (Abcam); anti-MT-CO1 (Biolegend); anti-ATP5A (Biolegend); anti-Grp78 (Abcam); and anti-CLPP (Sigma)."}
{"smiles": "CS(=O)(=O)c1ccc([C@@H](O)[C@@H](CO)NC(=O)C(Cl)Cl)cc1", "note": "[thiamphenicol]", "values": [{"measurement": "UPR^mt induction", "result": "induction"}, {"measurement": "cell cycle gene expression / cell cycle regulators", "result": "induced"}, {"measurement": "mitonuclear imbalance", "result": "induces"}, {"measurement": "prohibitins expression", "result": "induced"}, {"measurement": "UPR^mt induction", "setting": "listed as TAP", "result": "induces"}, {"measurement": "cell cycle gene expression / cell cycle regulators", "setting": "listed as TAP", "result": "induces"}]}
